{"source": "patent EP0325131A2", "about": "“Pyrimidine derivatives as performance stimulating agents” (BAYER AG, priority 1988, dated 1989)", "test_system": "Weibliche Laborratten", "experiment": "Rat feeding trial (relative weight gain versus untreated control)", "assay_type": "in vivo, Laborratten vom Typ SPF Wistar", "conditions": "female SPF Wistar rats 90-110 g, 100 ppm active substance in feed ad lib, 13 days, relative to untreated control", "from_the_text": "Weibliche Laborratten 90-110 g schwer vom Typ SPF Wistar (Züchtung Hagemann) werden ad lib mit Standard Rattenfutter, das mit der gewünschten Menge Wirkstoff versetzt ist, gefüttert. Jeder Versuchsansatz wird mit Futter der identischen Charge durchgeführt, so daß Unterschiede in der Zusammensetzung des Futters die Vergleichbarkeit der Ergebnisse nicht beeinträchtigen können.\nDie Ratten erhalten Wasser ad lib.\nJeweils 12 Ratten bilden eine Versuchsgruppe und werden mit Futter, das mit der gewünschten Menge Wirkstoff versetzt ist, gefüttert. Eine Kontrollgruppe erhält Futter ohne Wirkstoff. Die Versuchsgruppen werden so zusammengestellt, daß das durchschnittliche Körpergewicht sowie die Streuung in den Körpergewichten der Ratten in jeder Versuchsgruppe gleich ist, so daß eine Vergleichbarkeit der Versuchsgruppen untereinander gewährleistet ist.\nDie Tiere werden vor Versuchsbeginn 2 Tage an die neuen Haltungsbedingungen adaptiert, während dieser Zeit wird Futter ohne Wirkstoffzusatz gegeben. Danach erhalten die Tiere 13 Tage lang Futter, das Wirkstoff enthält. Es wird die relative Gewichtszunahme im Verhältnis zur unbehandelten Kontrolle bestimmt.", "data": [{"smiles": "CC(C)(C)NCC(O)c1cnc(N)nc1", "note": "(stereo not shown) [compound 1, 1-(2-Amino-5-pyrimidinyl)-2-(tert.-butylamino)-ethanol]", "values": [{"measurement": "relative Gewichtszunahme", "result": 30, "unit": "%"}]}]}
